Reference: US10668040B2, “Treatment of urea cycle disorders in neonates and infants” (Horizon Therapeutics, LLC, priority 2017, dated 2020)

How the values were obtained:
Format in all cases: in vivo, human
[1] = HPN-100-009 (Example 2): urinary PAGN concentrations on first full day of dosing
Experimental: Assessment of Urinary PAGN Concentrations on the First Full Day of RAVICTI® Dosing.
End point description. Urinary PAGN concentration was measured through urine collection. PK Evaluable Population: all subjects from the safety population with individual concentration-time profiles that allow computation of meaningful PK parameter values. End point timeframe: Hour 0 and between 0.5 and 1 hour, 1.5 and 2.5 hours, 4 and 6 hours, 7.5 and 8.5 hours, and between 12 and 24 hours after the first dose of the day on Day 1 for stable subjects and on Day 2 for subjects in HAC.

[2] = Example 3: urinary PAGN concentrations (first full day and up to end of trial)
Experimental: Urinary PAGN Concentrations on the First Full Day of RAVICTI Dosing
PK Evaluable Population: all subjects from the safety population with individual concentration-time profiles that allow computation of meaningful PK parameter values. Measurements were taken at hour 0, between 0.5 and 1.5 hours, between 1.5 and 2.5 hours, between 4 and 6 hours, between 7.5 and 8.5 hours, and between 12 and 24 hours after the first dose of the day on day 1 for stable subjects and on day 2 for subjects in HAC.
Urinary PAGN Concentrations Up to End of Trial
PK Evaluable Population: all subjects from the safety population with individual concentration-time profiles that allow computation of meaningful PK parameter values. Measurements were taken at day 7, month 1, month 2, month 3, month 4, month 5, month 6, month 9, month 12, month 15, month 18, month 24, and at the end of the trial.

[3] = Pharmacokinetics of HPN-100 and NaPBA, study HPN-100-012; settings: HPN-100-012 (N = 15)
Excerpt: The pharmacokinetics of the short term studies can be summarized as follows. Mean exposure levels of HPN-100 metabolites PBA, PAA, and PAGN after doses of HPN-100 and NaPBA with meals (TID) in pediatric (29 days to 17 years of age) UCD patients in HPN-100-005 and HPN-100-012 studies are summarized below. The mean exposure to PBA, the parent metabolite, and mean exposure to PAGN, the terminal metabolite, show no systematic variation across age groups, while PAA exposure tended to decrease with increasing age, a finding consistent with those from population PK modeling which indicate that the rate of clearance/metabolism of PAA varies directly with body size. While systemic metabolite exposure, assessed as peak plasma concentration (Cmax) or AUC, is generally similar for HPN-100 and NaPBA, the minimum concentration (Cmin-ss) was higher—and/or percent-fluctuation less—for plasma PAGN, a finding consistent with slower gastrointestinal absorption of PBA when administered orally as HPN-100.

[4] = tested on: UCD patients; test: Example 3: rate of hyperammonemic crises (HACs)
Excerpt: Sixteen newborn infants aged 0 to 27 days, and 10 infants and toddlers aged 28 days to 23 months received RAVICTI Oral Liquid administered just prior to breastfeeding or intake of formula or food. The recommended dosing regimen was 3-6 times per day depending on feeding schedule.
The starting dose of RAVICTI was based on UCD status (newly diagnosed, or already stable on sodium phenylbutyrate [NaPBA] and/or sodium benzoate [NaBz]) and whether a hyperammonemic crisis was present. Subsequently, the dose may have been adjusted based on clinical and/or ammonia results, according to an algorithm provided in the protocol. […]
Hyperammonemic crisis (HAC) was defined as having signs and symptoms consistent with hyperammonemia (such as, but not limited to, frequent vomiting, nausea, headache, lethargy, irritability, combativeness, and/or somnolence) associated with high blood ammonia and requiring medical intervention. Rate of HACs prior to enrollment was calculated as sum of (number of HAC)/sum of (subject age in days at the time of enrollment or 365 days, whichever was less) across all subjects in the corresponding group. Rate of HACs per 6 months during the safety extension was calculated as sum of (number of HAC)/sum of (days during first 6 months starting on Day 8 or number days on RAVICTI, whichever is less) across all subjects in the corresponding group.

[5] = tested on: pediatric UCD patients; test: Pooled ammonia analyses from short term studies
Experimental: Pooled ammonia analyses from short term studies were also conducted.

O=C(CCCc1ccccc1)OCC(COC(=O)CCCc1ccccc1)OC(=O)CCCc1ccccc1 [RAVICTI, benzenebutanoic acid, 1′,1″-(1,2,3-propanetriyl) ester]
Urinary PAGN concentration ([1]; Age 2 Months to <2 Years, Hour 0.5 to 1): 4140.2 (±4398.8) μg/mL
Urinary PAGN concentration ([1]; Age 2 Months to <2 Years, Hour 1.5 to 2.5): 3145.2 (±5044.5) μg/mL
Urinary PAGN concentration ([1]; Age 2 Months to <2 Years, Hour 4 to 6): 5201.6 (±4546.6) μg/mL
Urinary PAGN concentration ([1]; Age 2 Months to <2 Years, Hour 7.5 to 8.5): 4290 (±3147.2) μg/mL
Urinary PAGN concentration ([1]; Age 2 Months to <2 Years, Hour 12 to 24): 7561.1 (±6955.7) μg/mL
Urinary PAGN concentration ([1]; Age 2 months to <2 years, Hour 0): 3478.3 (±1775.4) μg/mL
Urinary PAGN concentration ([2]; Age 0 to <2 months, Day 7): 4643 (±2506); μg/mL
Urinary PAGN concentration ([2]; Age 0 to <2 months, End of trial): 6939 (±6581); μg/mL
Urinary PAGN concentration ([2]; Age 0 to <2 months, Month 1): 4517 (±2485), μg/mL
Urinary PAGN concentration ([2]; Age 0 to <2 months, Month 2): 4116 (±3137); μg/mL
Urinary PAGN concentration ([2]; Age 0 to <2 months, Month 3): 7037 (±4493); μg/mL
Urinary PAGN concentration ([2]; Age 0 to <2 months, Month 4): 2826 (±1543); μg/mL
Urinary PAGN concentration ([2]; Age 0 to <2 months, Month 5): 6973 (±3682); μg/mL
Urinary PAGN concentration ([2]; Age 0 to <2 months, Month 6): 5883 (±3128); μg/mL
Urinary PAGN concentration ([2]; Age 0 to <2 months, Month 9): 7006 (±4289); μg/mL
Urinary PAGN concentration ([2]; Age 0 to <2 months, Month 12): 5847 (±2992); μg/mL
Urinary PAGN concentration ([2]; Age 0 to <2 months, Month 15): 3915 (±2584); μg/mL
Urinary PAGN concentration ([2]; Age 0 to <2 months, first full day, 0.5 to 1.5 hours): 1828 (±2862); μg/mL
Urinary PAGN concentration ([2]; Age 0 to <2 months, first full day, 1.5 to 2.5 hours): 1746 (±1464); μg/mL
Urinary PAGN concentration ([2]; Age 0 to <2 months, first full day, 4 to 6 hours): 2260 (±1472); μg/mL
Urinary PAGN concentration ([2]; Age 0 to <2 months, first full day, 7.5 to 8.5 hours): 3530.43 (±3600.4), μg/mL
Urinary PAGN concentration ([2]; Age 0 to <2 months, first full day, 12 to 24 hours): 4404 (±3766); μg/mL
Urinary PAGN concentration ([2]; Age 0 to <2 months, first full day, Hour 0): 3530.43 (±3600.4); μg/mL
Urinary PAGN concentration ([2]; Age 2 months to <2 years, Day 7): 8859 (±10500); μg/mL
Urinary PAGN concentration ([2]; Age 2 months to <2 years, End of trial): 25333 (±21324); μg/mL
Urinary PAGN concentration ([2]; Age 2 months to <2 years, Month 1): 6274 (±4802); μg/mL
Urinary PAGN concentration ([2]; Age 2 months to <2 years, Month 2): 7386 (±6419); μg/mL
Urinary PAGN concentration ([2]; Age 2 months to <2 years, Month 3): 11456 (±14471); μg/mL
Urinary PAGN concentration ([2]; Age 2 months to <2 years, Month 4): 21416 (±33695); μg/mL
Urinary PAGN concentration ([2]; Age 2 months to <2 years, Month 5): 6129 (±8024); μg/mL
Urinary PAGN concentration ([2]; Age 2 months to <2 years, Month 6): 5347 (±3153); μg/mL
Urinary PAGN concentration ([2]; Age 2 months to <2 years, Month 9): 9357 (±7286); μg/mL
Urinary PAGN concentration ([2]; Age 2 months to <2 years, Month 12): 2580 (±286); μg/mL
Urinary PAGN concentration ([2]; Age 2 months to <2 years, Month 15): 6400 (±00000); μg/mL
Urinary PAGN concentration ([2]; Age 2 months to <2 years, Month 18): 5250 (±00000); μg/mL
Urinary PAGN concentration ([2]; Age 2 months to <2 years, first full day, 0.5 to 1.5 hours): 4140 (±4399); μg/mL
Urinary PAGN concentration ([2]; Age 2 months to <2 years, first full day, 1.5 to 2.5 hours): 3145 (±5045); μg/mL
Urinary PAGN concentration ([2]; Age 2 months to <2 years, first full day, 4 to 6 hours): 5202 (±4547); μg/mL
Urinary PAGN concentration ([2]; Age 2 months to <2 years, first full day, 7.5 to 8.5 hours): 3950 (±3068); μg/mL
Urinary PAGN concentration ([2]; Age 2 months to <2 years, first full day, 12 to 24 hours): 7561 (±6956); μg/mL
Urinary PAGN concentration ([2]; Age 2 months to <2 years, first full day, Hour 0): 3273 (±1993); μg/mL
Plasma PAA % Fluctuation ([3]; mean (CV %)): 2141 (145.0) %
Plasma PAA AUC0-24 ([3]; mean (CV %)): 1096 (214.0) μg · h/mL
Plasma PAA CLss/F ([3]; mean (CV %)): 25538 (116.8) mL/min
Plasma PAA Cmax-ss ([3]; mean (CV %)): 84.7 (148.3) μg/mL
Plasma PAA Cmin-ss ([3]; mean (CV %)): 26.1 (360.8) μg/mL
Plasma PAGN % Fluctuation ([3]; mean (CV %)): 907 (116.7) %
Plasma PAGN AUC0-24 ([3]; mean (CV %)): 1131 (71.2) μg · h/mL
Plasma PAGN CLss/F ([3]; mean (CV %)): 10830 (85.6) mL/min
Plasma PAGN Cmax-ss ([3]; mean (CV %)): 85.5 (53.7) μg/mL
Plasma PAGN Cmin-ss ([3]; mean (CV %)): 19.9 (173.4) μg/mL
Plasma PBA % Fluctuation ([3]; mean (CV %)): 1781 (84.6) %
Plasma PBA AUC0-24 ([3]; mean (CV %)): 255 (54.5) μg · h/mL
Plasma PBA CLss/F ([3]; mean (CV %)): 22610 (48.6) mL/min
Plasma PBA Cmax-ss ([3]; mean (CV %)): 36.8 (59.0) μg/mL
Plasma PBA Cmin-ss ([3]; mean (CV %)): 0.750 (192.7) μg/mL
Plasma PAA Tmax-ss ([3]; median): 8.00 h
Plasma PAGN Tmax-ss ([3]; median): 7.92 h
Plasma PBA Tmax-ss ([3]; median): 8.00 h
Rate of HACs (ratio) ([4]; subjects aged 0 to 27 days, 16 subjects assessed): 0.003
Rate of HACs (ratio) ([4]; subjects aged 2 months and up to 2 years, 6 subjects assessed): 0.005
abnormal ammonia values [5]: 15%
